Where a name gives a salt, the structure may show the parent alone. Read-outs that look alike come from different tables or passages of the source.
Experiments:
[1] = background statement on the acidic salt; cited from earlier work
[2] = Solubility in buffers at pH 1.0, 1.2, 4.5, 6.8 and 7.5; format: physicochemical
Protocol: The buffers at pH 1.0 and 1.2 were prepared with aqueous solutions of potassium chloride 0.2M and hydrochloric acid 0.2 M, the buffers at pH 6.8 and 7.5 were prepared with aqueous solutions of monobasic potassium phosphate 0.2 M and sodium hydroxide 0.2 M and the buffer at pH 4.5 with aqueous solutions of potassium biphthalate 0.2 M and hydrochloric acid 0.2 M, according to pharmacopoeia USP31.
The statement freely soluble means that the volume of solvent (required for dissolution) in ml per gram of solute is of from 1 to 10. The statement soluble means that the volume of solvent (required for dissolution) in ml per gram of solute is of from […]. The statement sparingly soluble means that the volume of solvent (required for dissolution) in ml per gram of solute is of from 30 to 100. The statement slightly soluble means that the volume of solvent (required for dissolution) in ml per gram of solute is of from 100 to 1000. The statement very slightly soluble means that the volume of solvent (required for dissolution) in ml per gram of solute is from 1000 to 10 000.

[3] = Color classification according to the Munsell color system; format: physicochemical
From the text: The table below presents the color classification of the doxycycline salts according to the Munsell color system.

[4] = pH of aqueous solutions of the salts; conditions: aqueous solution, concentration approximately 10^-3 M

C[C@H]1c2cccc(O)c2C(=O)C2=C(O)[C@]3(O)C(=O)C(C(N)=O)=C(O)[C@@H](N(C)C)[C@@H]3[C@@H](O)[C@@H]21 [doxycycline hydrochloride]
pH [1]: about 3

Demeclocycline Maleate
Solubility pH = 1.0 (class) ([2]; buffer pH 1.0, KCl 0.2 M / HCl 0.2 M): Soluble (The statement soluble means that the volume of solvent (required for dissolution) in ml per gram of solute is of from 1 to 30) | Solubility pH = 1.2 (class) ([2]; buffer pH 1.2, KCl 0.2 M / HCl 0.2 M): Soluble (The statement soluble means that the volume of solvent (required for dissolution) in ml per gram of solute is of from 1 to 30) | Solubility pH = 4.5 (class) ([2]; buffer pH 4.5, potassium biphthalate 0.2 M / HCl 0.2 M): Sparingly (The statement sparingly soluble means that the volume of solvent (required for dissolution) in ml per gram of solute is of from 30 to 100) | Solubility pH = 6.8 (class) ([2]; buffer pH 6.8, monobasic potassium phosphate 0.2 M / NaOH 0.2 M): Sparingly (The statement sparingly soluble means that the volume of solvent (required for dissolution) in ml per gram of solute is of from 30 to 100) | Solubility pH = 7.5 (class) ([2]; buffer pH 7.5, monobasic potassium phosphate 0.2 M / NaOH 0.2 M): Sparingly (The statement sparingly soluble means that the volume of solvent (required for dissolution) in ml per gram of solute is of from 30 to 100) | Color Description [3]: Yellowish | Munsell Classification ([3]; Munsell color system): 5Y/9/2 NN | pH [4]: 3.4

— patent US10543298B2, “Salts of tetracyclines” (Hovione Scientia Limited, priority 2015, dated 2020)
